Assay results from patent US7582786B2, “Synthetic catalytic free radical scavengers useful as antioxidants for prevention and therapy of disease” (Eukarion Inc., priority 1996, dated 2009).

Legend:
[1] = SOD activity, inhibition of cytochrome C reduction by xanthine plus xanthine oxidase (Example 1); format: biochemical; settings: Example 1, cytochrome C reduction
Procedure: The SOD activity of the compounds was determined by evaluating the inhibition of the reduction of cytochrome C produced by the oxygen free radical generating system, xanthine plus xanthine oxidase. Cytochrome C reduction is monitored spectrophotometrically at 550 nm according to the method described in Darr et al. (1987) Arch. Biochem. Biophys. 258: 351, incorporated herein by reference. The concentration of xanthine oxidase is adjusted such that it produces a rate of reduction of cytochrome C at 550 nm of 0.025 absorbance unit per minute. Under these conditions, the amount of SOD activity required to inhibit the rate of cytochrome C reduction by 50 percent (i.e., to a rate of 0.0125 absorbance unit per minute) is defined as one unit of activity. Salen-metal complexes are identified as antioxidants if they have at least 0.1 unit of activity at a concentration of 1 mM under these standard assay conditions.

[2] = Catalase activity, decomposition of hydrogen peroxide monitored at 240 nm (Example 1); format: biochemical; settings: Example 1, H2O2 decomposition at 240 nm
Procedure: Catalase activity was measured using a spectrophotometric method in which the decomposition of hydrogen peroxide is monitored at 240 nm according to the method of Aebi et al. (1984) Methods Enzymol. 105: 121, incorporated herein by reference. One unit of catalase activity is defined as the amount of enzyme (or salen-metal complex) required to decompose 1 μmole of hydrogen peroxide in one minute.

[3] = Peroxidase activity, H2O2-dependent oxidation of ABTS (Example 2); format: biochemical; settings: for Peroxidase rate: 10 μM salen manganese complex, 0.2 mM H2O2; for Peroxidase: relative to C7 (C7 = 100)
In short: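 ABTS oxidation by salen manganese complex (10 μM) with 0.2 mM H2O2 in 50 mM sodium phosphate pH 8.1 (or pH 6.0/7.1 where indicated), 0.9% NaCl, 0.5 mM ABTS, 27±0.2 °C. Oxidized ABTS read spectrophotometrically at 740 or 500 nm and quantified from Δε740 20,300 or Δε500 3400 M^−1cm^−1.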

[4] = SOD activity, xanthine/xanthine oxidase with cytochrome C as acceptor (Example 2); format: biochemical; settings: relative to C7 (C7 = 100)
In short: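 Superoxide was generated by 120 µM xanthine and 0.2 U/ml xanthine oxidase in 50 mM sodium phosphate pH 7.8 at 27 °C, with salen manganese compounds at ≥4 concentrations in duplicate.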

[5] = tested on: brain homogenates; test: Iron-induced lipid peroxidation in brain homogenates (MDA); format: biochemical, rat
Procedure: Lipid peroxidation was induced by incubating a mixture consisting of 0.25 ml homogenate, 0.25 ml ASCF with test compounds, and 10 μM FeCl2 for 1 hr at 35° C. under an atmosphere equilibrated with O2:CO2(95:5). Following the incubation, 0.1 ml of the sample was extracted with trichloroacetic acid and analyzed for thiobarbituric acid reactive material as described previously, using authentic malonyldialdehyde (MDA) as a standard.

[6] = tested on: Human dermal fibroblasts (HF cells); test: Cell protection assay, tert-butylhydroperoxide (t-BHP) toxicity, XTT; format: cell-based; settings: for Cell viability, absorbance at 490 nm uncorrected for blank: t-BHP 0.5 mM
Procedure: (§1) Human dermal fibroblasts (HF cells) were obtained from the American type tissue Culture Collection at passage 1 and cultured and propagated in a medium (HF medium) consisting of Dulbecco's Modified Eagle's Medium with 4.5 g/l D-glucose, 10% calf serum 4 mM glutamine, 50 units/ml penicillin, and 50 μg/ml streptomycin in a 37° C. humidified incubator equilibrated with 5% CO2. Cells were used at passages 5 or 6 for experiments. For cell protection assays, HF cells were seeded at a density of about 15,000 cells per cm2 onto 96-well culture plates and allowed to grow to confluence. To assess protection tert-butylhydroperoxide (t-BHP) toxicity, confluent cell layers were first treated with the indicated concentrations of test compounds dissolved in HF medium for 18 hr. The medium was then replaced with fresh medium containing test compounds and 0.5 mM tert-butylhydroperoxide (t-BHP) and cells were incubated for another 18 hr. The medium was then removed and replaced with fresh HF medium (100 μl per well) without test compounds or t-BHP. Fifty μl of XTT reagent (Boeringer Mannheim, Inc.), prepared as described by the manufacturer, was then added to each well and the plates returned to the incubator. After 2 hr., the absorbance at 490 nm was measured in a BioRad (Richmond, Calif.) Model 3550 plate-reader, using a reference wavelength of 655 nm. Control cells that had not been exposed to test compounds or toxic agents were included among the samples treated with XTT reagent. Absorbance measurements for blank wells, containing HF medium and XTT reagent but no cells, were also determined. To analyze protection from glucose/glucose oxidase toxicity, confluent cell layers were incubated with HF medium containing glucose oxidase (0.019 units/ml) along with test compounds, as indicated, for 18 hr in the tissue culture incubator. Fresh HF medium was then added and cell viability assessed using the XTT reagent as described above. For both these models, concentrations of toxic agents were selected that were reproducibly completely lethal. Cytotoxicity assessments were routinely confirmed by visual inspection of the cell layers prior to addition of the XTT reagent.

[7] = Catalase activity, conversion of H2O2 to oxygen, polarographic oxygen electrode (Example 2); format: biochemical
In short: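 Clark-type oxygen electrode at 25 °C in 50 mM sodium phosphate pH 8.1, 0.9% NaCl, with 10 μM salen-manganese complex and 10 mM H2O2. Initial rates from slope of first ~5 s, corrected for H2O2-alone rate; endpoint O2 as maximal minus pre-substrate baseline.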

[8] = tested on: Human dermal fibroblasts (HF cells); test: Cell protection assay, glucose/glucose oxidase toxicity, XTT; format: cell-based
Procedure: as §1
Catalase and peroxidase activities were assayed as described in Example 2. Catalase assays contained 10 μM salen-manganese complex and 10 mM hydrogen peroxide. Peroxidase assays contained 10 μM salen-manganese complex and 0.2 mM hydrogen peroxide. Glucose-glucose oxidase toxicity assays were performed using human dermal fibroblasts as described in Example 2.

[9] = Peroxidase activity with t-BHP as substrate, ABTS oxidation; format: biochemical
Procedure: Peroxidase activity was assayed by monitoring the hydrogen peroxide-dependent oxidation of 2,2′-azino-bis(3-ethylbenzthiazoline-6) sulfonic acid (ABTS) spectrophotometrically. Standard assay mixtures consisted of 50 mM sodium phosphate, pH 8.1, 0.9% sodium chloride, 0.5 mM ABTS, and H2O2 and salen manganese complex as indicated. Where indicated, 50 mM sodium phosphate buffers of pH 6.0 or pH 7.1 were substituted. Assays were conducted at 27±0.2° C. ABTS oxidation was monitored at 740 or 500 nm to eliminate interference by the salen manganese complexes, many of which absorb in the vicinity of the λmax of oxidized ABTS, and to avoid absorbance values that exceeded the linear range of the spectrophotometer. The amount of oxidized ABTS was estimated using an Δε740 of 20,300 M^−1cm^−1 or an Δε500 of 3400 M^−1cm^−1 calculated based upon the published molar extinction coefficient oat 405 nm (36,800).
(In comparison, horseradish peroxidase utilized t-BHP with an ABTS oxidation rate that was about 5.4% of the rate with H2O2).

[10] = tested on: brain microsomes; test: Lipid peroxidation induced in brain microsomes by iron and ascorbate (MDA)
Source text: A series of salen-metal complexes were synthesized and their catalytic activities determined. […] FIGS. 24A-24H show structural formulae of further salen-metal compounds which were synthesized and evaluated.

[11] = 10 μM salen manganese complex, 10 mM H2O2

| Compound | SOD Activity [1] | Catalase Activity [2] | Peroxidase rate [3] | Peroxidase [3] | SOD [4] | MDA levels, percent of control ([5]; 1 μM) | MDA levels, percent of control ([5]; 5 μM) | MDA levels, percent of control ([5]; 10 μM) | MDA levels, percent of control ([5]; 25 μM) | Cell viability, absorbance at 490 nm uncorrected for blank ([6]; 2.5 μM) | Cell viability, absorbance at 490 nm uncorrected for blank ([6]; 5 μM) | Cell viability, absorbance at 490 nm uncorrected for blank ([6]; 10 μM) | Cell viability, absorbance at 490 nm uncorrected for blank ([6]; 20 μM) | Cell viability, absorbance at 490 nm uncorrected for blank ([6]; 40 μM) | synergistic toxicity with t-BHP ([6]; 80 μM) | Cell viability, absorbance at 490 nm uncorrected for blank ([6]; 80 μM) | Catalase rate [7, 11] | Endpoint [7, 11] | Catalase endpt. ([7]; relative to C7 (C7 = 100)) | Catalase rate ([7]; relative to C7 (C7 = 100)) | further results |
| --- | --- | --- | --- | --- | --- | --- | --- | --- | --- | --- | --- | --- | --- | --- | --- | --- | --- | --- | --- | --- | --- |
| CC(C)(C)c1cc2c(c(C(C)(C)C)c1)[O][Mn]([Cl])[O]c1c(cc(C(C)(C)C)cc1C(C)(C)C)C=NC1CCCCC1N=C2 (centres unmarked) [Compound C10] | 69 units/mM | 179 units/mM | – | – | – | – | – | – | – | – | – | – | – | – | – | – | – | – | – | – | – |
| CC(C)(C)c1cc(Cl)cc2c1[O][Mn]([Cl])[O]c1c(cc(Cl)cc1C(C)(C)C)C=NC1CCCCC1N=C2 (centres unmarked) [Compound C11] | 101 units/mM | 46 units/mM | – | – | – | – | – | – | – | – | – | – | – | – | – | – | – | – | – | – | – |
| COc1cc2c(c(C(C)(C)C)c1)[O][Mn]([Cl])[O]c1c(cc(OC)cc1C(C)(C)C)C=NC1CCCCC1N=C2 (centres unmarked) [Compound C12] | 4397 units/mM | 144 units/mM | – | – | – | – | – | – | – | – | – | – | – | – | – | – | – | – | – | – | – |
| CC(=O)[O][Mn]1[O]c2c(F)cccc2C=NCCN=Cc2cccc(F)c2[O]1 [Compound C36] | – | – | 22.2 ± 0.8 μM ABTS oxidized/min | 129 | 104 | 95% | 37% | 16% | 4% | 0.28 ± 0.01 | 0.29 ± 0.01 | 1.13 ± 0.05 | 1.44 ± 0.04 | 1.28 ± 0.45 | possible synergistic toxicity | 0.79 ± 0.34 | 167.5 ± 9.8 μM O2/min | 27.9 ± 2.3 maximal μM O2 | 104 | 128 | protection against glucose and glucose oxidase (in words) [8]: about equally as effective as C7; peroxidase rate with t-BHP relative to C32 [9]: about twice as fast as C32 |
| Fc1cccc2c1[O][Mn]([Cl])[O]c1c(F)cccc1C=NCCN=C2 [Compound C37] | – | – | 23.3 ± 0.6 μM ABTS oxidized/min | 92 | 115 | 94% | 43% | 25% | 8% | 0.28 ± 0.01 | 0.28 ± 0.01 | 1.20 ± 0.06 | 1.42 ± 0.05 | 1.53 ± 0.02 | possible synergistic toxicity | 1.20 ± 0.02 | 182.6 ± 26.8 μM O2/min | 28.3 ± 0.5 maximal μM O2 | 104 | 117 | protection against glucose and glucose oxidase (in words) [8]: about equally as effective as C7; peroxidase rate with t-BHP relative to C32 [9]: about twice as fast as C32 |
| Vitamin E | – | – | – | – | – | – | – | – | – | – | – | – | – | – | – | – | – | – | – | – | inhibition of lipid peroxidation in brain microsomes [10]: inhibition of lipid peroxidation |
